How the values were obtained:
[1] = system: ECHCG (Barnyardgrass); assay: Preemergence herbicidal evaluation; type: in vivo, Echinochloa crus-galli; conditions: rated 4-5 weeks after treatment
Method in brief: (§1)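 Herbicidal effect scored visually, 0-9, at 4 to 5 weeks against a control; compound applied preemergence by aqueous acetone spray to seeded soil at about 0.0156 to 0.500 kg/ha.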

[2] = system: CHEAL (Lambsquarters, Common); assay: Postemergence herbicidal evaluation; type: in vivo, Chenopodium album; conditions: postemergence
Method in brief: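 Visual 0-9 injury score (stand, vigor, malformation, size, chlorosis, appearance vs untreated) taken four to five weeks post-spray, averaged across repeat tests. Test plants about two weeks old; foliar spray of acetone/water (1:1) with 0.5% surfactant delivering ~0.0156-0.500 kg active/ha.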

[3] = system: GALAP (Galium); assay: Preemergence herbicidal evaluation; type: in vivo, Galium aparine; conditions: rate 0.0313 kg/ha; rated 4-5 weeks after treatment
Method in brief: as §1

[4] = system: ORYSAT (Rice, Tebonnet); assay: Rice tolerance to post-transplant applications, flooded paddy conditions (Table IV); type: in vivo, Oryza sativa, (L.) Tebonnet; conditions: flooded paddy, post-transplant rice, 3-4 weeks after treatment
Method in brief: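 Herbicidal effect is judged by eye on a 0–9 scale versus control, 3–4 weeks after dosing. Dosing is into flood water kept 1.5–3 cm over the soil, at about 0.0313–0.500 kg/ha in aqueous/acetone 50/50 v/v, on 3–5 cm weeds and 1.5–2.5-leaf rice seedlings.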

[5] = system: IPOSS (Morningglory Spp.); assay: Postemergence herbicidal evaluation; type: in vivo, Ipomoea Spp.
Experimental: (§2) In the tests, seedling plants are grown in jiffy flats for about two weeks. The test compounds are dispersed in 50/50 acetone/water mixtures containing 0.5% TWEEN®20, a polyoxyethylene sorbitan monolaurate surfactant of Atlas Chemical Industries, in sufficient quantities to provide the equivalent of about 0.0156 kg to 0.500 kg per hectare of active compound when applied to the plants through a spray nozzle operating at 40 psi for a predetermined time. After spraying, the plants are placed on greenhouse benches and are cared for in accordance with conventional greenhouse procedures. From four to five weeks after treatment, the seedling plants are examined and rated according to the rating system set forth below. Where more than one test is involved for a given compound, the data are averaged.
(§3) Plant species employed in these evaluations are reported by header abbreviation, common name and scientific name.
(§4) Results of herbicide evaluation are expressed on a rating scale (0-9). The scale is based upon a visual observation of plant stand, vigor, malformation, size, chlorosis and overall plant appearance as compared with a control.

[6] = system: IPOSS (Morningglory Spp.); assay: Preemergence herbicidal evaluation; type: in vivo, Ipomoea Spp.; conditions: rated 4-5 weeks after treatment
Description: as §4
(§5) The preemergence herbicidal activity of the test compounds of the present invention is exemplified by the following tests in which the seeds of a variety of monocotyledonous and dicotyledonous plants are separately mixed with potting soil and planted on top of approximately one inch of soil in separate pint cups. After planting, the cups are sprayed with the selected aqueous acetone solution containing test compound in sufficient quantity to provide the equivalent of about 0.0156 to 0.500 kg per hectare of test compound per cup. The treated cups are then placed on greenhouse benches, watered and cared for in accordance with conventional greenhouse procedures. From four to five weeks after treatment, the tests are terminated and each cup is examined and rated according to the rating system provided in Example 37.
(§6) The compounds evaluated are reported by compound number given in Example 37.

[7] = system: GLXMAW (Soybean, Williams); assay: Preemergence herbicidal evaluation; type: in vivo, Glycine max, (L.) Merr. cv Williams; conditions: rated 4-5 weeks after treatment
Method in brief: as §1

[8] = system: MOOVA (Monochoria); assay: Postemergence weed control under flooded paddy conditions; type: in vivo, Monochoria vaginalis; conditions: postemergence weeds, 3-4 weeks after treatment
Method in brief: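 Injury ratings (0–9 scale covering stand, vigor, malformation, size, chlorosis and overall appearance versus control) were made three to four weeks after treatment. Test material, about 0.0313 to 0.500 kg/ha a.i. in 50/50 v/v aqueous/acetone, was added to flood water 1.5 to 3 cm deep over 3 to 5 cm weeds and 1.5 to 2.5 leaf rice.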

[9] = system: ORYSAT (Rice, Tebonnet); assay: Rice tolerance to post-transplant applications, flooded paddy conditions (Table III); type: in vivo, Oryza sativa, (L.) Tebonnet; conditions: post-transplant rice, flooded paddy, rated 3-4 weeks after treatment
Method in brief: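 Injury scored 0-9 by eye against untreated control, judging stand, vigor, malformation, size and chlorosis, three to four weeks after treatment. Compound in 50/50 aqueous/acetone, about 0.0313 to 0.500 kg/ha, was applied to paddy water (1.5 to 3 cm depth) three days after transplanting paired ten-day-old Tebonnet rice seedlings.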

[10] = system: GLXMA (Soybean); assay: Preemergence herbicidal evaluation; type: in vivo, Glycine max; conditions: rated 4-5 weeks after treatment
Description: as §4, §5, §6

[11] = system: GLXMA (Soybean); assay: Postemergence herbicidal evaluation; type: in vivo, Glycine max
Experimental: as §2, §3, §4

SMILES | ECHCG preemergence herbicidal rating ([1]; rate 0.0625 kg/ha) | ECHCG preemergence herbicidal rating ([1]; rate 0.1250 kg/ha) | ECHCG preemergence herbicidal rating ([1]; rate 0.2500 kg/ha) | ECHCG preemergence herbicidal rating ([1]; rate 0.5000 kg/ha) | CHEAL herbicidal rating ([2]; rate 0.0313 kg/ha) | CHEAL herbicidal rating ([2]; rate 0.0625 kg/ha) | CHEAL herbicidal rating ([2]; rate 0.1250 kg/ha) | CHEAL herbicidal rating ([2]; rate 0.2500 kg/ha) | CHEAL herbicidal rating ([2]; rate 0.5000 kg/ha) | IPOSS herbicidal rating ([5]; rate 0.0313 kg/ha) | IPOSS herbicidal rating ([5]; rate 0.0625 kg/ha) | IPOSS herbicidal rating ([5]; rate 0.1250 kg/ha) | IPOSS herbicidal rating ([5]; rate 0.2500 kg/ha) | IPOSS herbicidal rating ([5]; rate 0.5000 kg/ha) | IPOSS preemergence herbicidal rating ([6]; rate 0.0625 kg/ha) | IPOSS preemergence herbicidal rating ([6]; rate 0.1250 kg/ha) | IPOSS preemergence herbicidal rating ([6]; rate 0.2500 kg/ha) | IPOSS preemergence herbicidal rating ([6]; rate 0.5000 kg/ha) | Herbicidal rating MOOVA ([8]; rate 0.1250 kg/ha) | Herbicidal rating MOOVA ([8]; rate 0.2500 kg/ha) | other results
O=C1CSC(=Nc2cc(N3C(=O)C4=C(CCCC4)C3=O)c(F)cc2Cl)N1c1ccccc1 [Compound 3, N-{4-chloro-2-fluoro-5-[(4-oxo-3-phenyl-2-thiazolidinylidene)amino]phenyl}-1-cyclohexene-1,2-dicarboximide] | 0.0 | 2.0 | 4.0 | 6.0 | 7.0 | 6.0 | 9.0 | 9.0 | 9.0 | 2.0 | 4.0 | 9.0 | 8.0 | 9.0 | 0.0 | 0.0 | 2.0 | 4.0 | 4.5 | 4.5 | ECHCG preemergence herbicidal rating ([1]; rate 0.0313 kg/ha): 0.0; GALAP preemergence herbicidal rating [3]: 4.0; Herbicidal rating ORYSAT (rice tolerance) ([4]; rate 0.0625 kg/ha): 0.0; Herbicidal rating ORYSAT (rice tolerance) ([4]; rate 0.1250 kg/ha): 1.0; Herbicidal rating ORYSAT (rice tolerance) ([4]; rate 0.2500 kg/ha): 1.0; Herbicidal rating ORYSAT (rice tolerance) ([4]; rate 0.5000 kg/ha): 2.0; IPOSS preemergence herbicidal rating ([6]; rate 0.0313 kg/ha): 0.0; GLXMAW preemergence herbicidal rating ([7]; rate 0.0313 kg/ha): 0.0; GLXMAW preemergence herbicidal rating ([7]; rate 0.0625 kg/ha): 0.0; GLXMAW preemergence herbicidal rating ([7]; rate 0.1250 kg/ha): 0.0; GLXMAW preemergence herbicidal rating ([7]; rate 0.2500 kg/ha): 0.0; GLXMAW preemergence herbicidal rating ([7]; rate 0.5000 kg/ha): 2.0; Herbicidal rating MOOVA ([8]; rate 0.0625 kg/ha): 1.0; Herbicidal rating MOOVA ([8]; rate 0.5000 kg/ha): 5.5; Herbicidal rating ORYSAT (rice tolerance) ([9]; 0.0625 kg/ha): 0.0; Herbicidal rating ORYSAT (rice tolerance) ([9]; 0.1250 kg/ha): 2.0; Herbicidal rating ORYSAT (rice tolerance) ([9]; 0.2500 kg/ha): 2.0; Herbicidal rating ORYSAT (rice tolerance) ([9]; 0.5000 kg/ha): 3.0
CN1C(=O)C(F)SC1=Nc1cc(N2C(=O)C3=C(CCCC3)C2=O)c(F)cc1Cl (centres unmarked) [Compound 5, N-{4-chloro-2-fluoro-5-[(5-fluoro-3-methyl-4-oxo-2-thiazolidinylidene)amino]phenyl}-1-cyclohexene-1,2-dicarboximide] | 0.0 | 2.0 | 6.0 | 7.0 | 2.0 | 6.0 | 9.0 | 8.0 | 9.0 | 1.0 | 2.0 | 4.0 | 9.0 | 9.0 | 0.0 | 0.0 | 0.0 | 0.0 | 1.0 | 2.0 | CHEAL herbicidal rating ([2]; rate 0.0157 kg/ha): 2.0; GLXMA preemergence herbicidal rating ([10]; rate 0.0625 kg/ha): 1.0; GLXMA preemergence herbicidal rating ([10]; rate 0.1250 kg/ha): 1.0; GLXMA preemergence herbicidal rating ([10]; rate 0.2500 kg/ha): 2.0; GLXMA preemergence herbicidal rating ([10]; rate 0.5000 kg/ha): 2.0; IPOSS herbicidal rating ([5]; rate 0.0157 kg/ha): 0.0; Herbicidal rating MOOVA ([8]; rate 0.5000 kg/ha): 4.0; GLXMA herbicidal rating ([11]; rate 0.0157 kg/ha): 3.0; GLXMA herbicidal rating ([11]; rate 0.0313 kg/ha): 3.0; GLXMA herbicidal rating ([11]; rate 0.0625 kg/ha): 3.0; GLXMA herbicidal rating ([11]; rate 0.1250 kg/ha): 4.0; GLXMA herbicidal rating ([11]; rate 0.2500 kg/ha): 4.0; GLXMA herbicidal rating ([11]; rate 0.5000 kg/ha): 4.5
